In brackets after ≈: the same amount, converted by molar mass.
Columns and labels:
WT CFT073 = test: MIC assay, WT CFT073 (Table 1); type: cell-based, E. coli; conditions: average of two independent experiments, each in duplicates, CLSI
Description: (§1) Unless stated otherwise, E. coli cells were grown in Luria-Bertani (LB) medium (0.5% yeast extract, 1% tryptone, 0.5% NaCl) at 37°C. Where indicated, kanamycin (Kan) was added to culture media at a 50-μg/ml final concentration. MIC assays were performed based on Clinical and Laboratory Standards Institute (CLSI) guidelines. For in vitro growth curves, overnight cultures of WT CFT073, CFT073 Δlgt, and CFT073 Δlgt complemented with lgt from E. coli (lgt^Ec) or P. aeruginosa (lgt^Pa) were grown to mid-exponential phase (optical density at 600 nm [OD600] of 0.6) and then diluted to an OD600 of 0.1 to initiate growth curves. At various times, culture aliquots were diluted and plated in dilutions on LB+Kan agar, and CFU were enumerated in duplicates. Growth of MG1655 inducible deletion strains was measured by culturing in the presence of 2-fold dilutions of arabinose (starting arabinose concentrations for CFT073 and MG1655 inducible deletion strains were 4% and 0.8%, respectively). While […] was sufficient for WT growth of MG1655 Δlgt, 4% arabinose was used for CFT073 Δlgt based on comparing its growth to that of WT CFT073 as measured by CFU. OD600 growth measurements were performed using an EnVision 2101 multilabel reader plate reader (PerkinElmer) linked with Echo liquid handler (Labcyte). For time-kill experiments, bacteria were harvested in mid-exponential phase and treated with 12.5 μM G2824, 3.2 μM globomycin, and 1.6 μM vancomycin. CFU were enumerated at various times posttreatment. Bacterial culture medium containing 2% arabinose was used to induce lpp or lppΔK expression from pBad24 plasmids. Bacterial viability at different time points during the treatment was measured by enumerating CFU. Serum killing assays were carried out as previously described ([17]).

CFT073 Δlgt [1] = test: MIC assay, CFT073 Δlgt, Lgt 4% Ara; type: cell-based, E. coli; conditions: Escherichia coli
Description: as §1

CFT073 Δlgt [2] = test: MIC assay, CFT073 Δlgt, Lgt 0.25% Ara; type: cell-based, E. coli
Description: as §1

BW25113 cells, lgt gRNA = test: CRISPRi knockdown sensitization, lgt gRNA; type: cell-based, E. coli; conditions: 2 μM G2824, 0.05 μM globomycin or 0.016 μM ciprofloxacin; OD600 relative to untreated, versus scr or folA gRNA
Excerpt: (§2) The two-plasmid bacterial CRISPRi system pdCas9-bacteria_GNE and PGNRNA-bacteria_GNE are based on the AddGene plasmids 44249 and 44251 ([73]), respectively. The plasmid was synthesized in smaller DNA fragments (500 bp to 3 kb) (IDT gBlocks) and assembled by Gibson assembly (NEB) according to the manufacturer’s protocols. Plasmids were confirmed by sequencing (ELIM Bio). gRNAs were designed to target the 5′ end of the gene on the nontemplate strand using Benchling CRISPR software ([74]). gRNAs were cloned into PGNRNA-bacteria using Gibson assembly (NEB) according to the manufacturer’s protocols and sequence confirmed (ELIM Bio).
(§3) Bacterial cultures were grown overnight on LB agar supplemented with carbenicillin (50 μg/ml) and chloramphenicol (12.5 μg/ml) to maintain both plasmids, pdCas9-bacteria and PGNRNA-bacteria with each gRNA as appropriate. Cells were scraped from the plate into fresh medium. The OD600 was measured, and the culture was subsequently diluted to an OD600 0.001 in the presence or absence of G2824, globomycin, or ciprofloxacin. Two hundred microliters was transferred to a 96-well plate (Corning) and monitored for growth by measuring the OD600 (EnVision multimode plate reader; PerkinElmer). All treatments were performed in triplicates. The specificity of CRISPRi downregulation was measured using reverse transcriptase quantitative PCR (RT-qPCR).

BW25113 cells, lspA gRNA = test: CRISPRi knockdown sensitization, lspA gRNA; type: cell-based, E. coli; conditions: 2 μM G2824, 0.05 μM globomycin or 0.016 μM ciprofloxacin; OD600 relative to untreated, versus scr or folA gRNA
Excerpt: as §2, §3

Lgt = test: Lgt-dependent diacylglyceryl modification of peptide substrate (MS, SDS-PAGE); type: biochemical, E. coli

Compound | MIC (WT CFT073; Escherichia coli) [µM] | MIC (CFT073 Δlgt [1]) [µM] | MIC (CFT073 Δlgt [2]; Escherichia coli) [µM] | further results
Cc1onc(-c2ccccc2)c1C(=O)N[C@@H]1C(=O)N2[C@@H]1SC(C)(C)[C@@H]2C(=O)O [Oxacillin] | > 100 | > 100 | 12.5 (≈ 5.02 µg/mL) | –
Cc1c(N)nc([C@H](CC(N)=O)NC[C@H](N)C(N)=O)nc1C(=O)N[C@H](C(=O)N[C@H](C)[C@@H](O)[C@H](C)C(=O)N[C@H](C(=O)NCCC1=N[C@@H](c2nc(C(=O)NCCCCN=C(N)N)cs2)CS1)[C@@H](C)O)[C@@H](O[C@@H]1O[C@@H](CO)[C@@H](O)[C@H](O)[C@@H]1O[C@H]1O[C@H](CO)[C@@H](O)[C@H](OC(N)=O)[C@@H]1O)c1cnc[nH]1 [Zeocin] | – | – | – | MIC (WT CFT073): 12.5 µM (≈ 17.8 µg/mL); MIC (CFT073 Δlgt [2]; CFT073 Δlgt, Lgt 0.25% Ara (low Lgt level), average of two independent experiments, each in duplicates, CLSI): 0.8 µM (≈ 1.14 µg/mL)
CC1(C)S[C@@H]2[C@H](NC(=O)Cc3ccccc3)C(=O)N2[C@H]1C(=O)O [Penicillin G] | > 50 | > 50 | 0.8 (≈ 0.268 µg/mL) | –
O=C(O)c1cn(C2CC2)c2cc(N3CCNCC3)c(F)cc2c1=O [ciprofloxacin] | – | – | – | sensitization by decreased lgt expression (BW25113 cells, lgt gRNA): did not lead to increased sensitivity; sensitization by decreased lspA expression (BW25113 cells, lspA gRNA): did not lead to increased sensitivity
CCn1cc(C(=O)O)c(=O)c2cc(F)c(N3CCNCC3)cc21 [Norfloxacin] | 0.4 (≈ 0.128 µg/mL) | 0.6 (≈ 0.192 µg/mL) | 0.2 (≈ 0.0639 µg/mL) | –
MQLNKVLKGLMIALPVMAIAACSSNKN [Pal-IAAC, peptide substrate derived from the Pal lipoprotein] | – | – | – | diacylglyceryl modification by SDS-PAGE (Lgt; SDS-PAGE, Coomassie blue): is Lgt dependent; diacylglyceryl modification, mass addition (Lgt; mass spectrometry, Lgt dependent): 552 Da
CO[C@H]1/C=C/O[C@@]2(C)Oc3c(C)c(O)c4c(O)c(cc(O)c4c3C2=O)NC(=O)/C(C)=C\C=C\[C@H](C)[C@H](O)[C@@H](C)[C@@H](O)[C@@H](C)[C@H](OC(C)=O)[C@@H]1C [Rifamycin] | 6.3 (≈ 4.4 µg/mL) | – | 0.8 (≈ 0.558 µg/mL) | –
